Experimental findings from US4814348A, “Therapeutic compositions containing derivatives of acrylic acid having an oxygen-containing heterocycle, therapeutic treatment therewith and new compounds” (Roussel Uclaf, priority 1983, dated 1989) are described below.

Usually LD50 stands for the dose expected to kill half of the subjects tested. Low values mean greater toxicity, high ones lower toxicity.

Data set [1] has as its system total acidity of the gastric secretions. Put plainly: Gastric antisecretory activity in pylorus-ligated rats (Shay technique). In kind it is in vivo. To be noted: dose of 10 mg/kg, intraduodenal, male rats, 3 hours. As for the experimental part:
B. Determination of the gastric antisecretory activity
The technique used is described by H. Shay et al in Gastro. Enterology, 5 43 (1945).
Male rats are used of a weight of about 200 g, which had been deprived of food for 48 hours, but with 8% glucose solution ad libitum. The pylorus of the rats, which had been slightly anesthetized with ether, is ligated and then, upon the end of the operation, the product to be tested is administered in different doses or, in the case of the control animals, an 0.5% solution of carboxymethyl cellulose is administered intraduodenally, whereupon the abdominal incision is sutured.
Three hours later, the animals are sacrificed and their stomachs removed after ligation of the esophagus.
The gastric juice is removed and centrifuged. The volume is then noted and the total acidity is determined on 100 μl of gastric juice by titration to a pH of 7 by means of 1/100N caustic soda.
The percentages of variation of total acidity of the gastric secretions are calculated, as compared with the results obtained with the control animals.

Data set [2] can be described thus: Acute oral toxicity (median lethal dose) in mice. The following applies: mouse, in vivo, oral administration. How it is done:
The median lethal dose (LD50) was evaluated upon oral administration of the products to mice.

Molecules are shown by their SMILES.

As to `O=C(O)C=CC(=O)c1cc2ccccc2o1` [Example 1, 4-(benzofuran-2-yl)-4-oxo-buten-2-oic acid], the “percentage of variation of total acidity of the gastric secretions as compared with control animals” value (shortened to “percentage”) in data set [1] was determined as 53%. In data set [2], this molecule showed a 50% lethal dose (LD50) of 350 mg/kg.

Regarding `Cc1cc(O)c(C(=O)C=CC(=O)O)c(=O)o1` [Example 2, 4-(2-oxo-4-hydroxy-6-methyl-2H-pyran-3-yl)-4-oxo-buten-2-oic acid], in data set [1], the “percentage” value is on record as 70%. Besides, the LD50 in data set [2] stood at 350 mg/kg.

Take `O=C(O)C=CC(=O)c1ccco1` [Example 3, 4-(2-furyl)-4-oxo-buten-2-oic acid]: the “percentage” value in data set [1] is on record as 94%. This molecule also gave an LD50 in data set [2] of 750 mg/kg.

Regarding `Cc1nc(C(=O)/C=C/C(=O)O)c(C)o1` [Example 4, Trans 4-(2,5-dimethyl-oxazol-4-yl)-4-oxo-buten-2-oic acid], the “percentage” value in data set [1] amounted to 77%. Further, in data set [2], the median lethal dose (LD50) was determined as 350 mg/kg.

`Cc1noc(C)c1C(=O)/C=C/C(=O)O` [Example 5, Trans-4(3,5-dimethyl-isoxazol-4-yl)-4-oxo-buten-2-oic acid]: the “percentage” value in data set [1] is reported as 87%. In data set [2], the LD50 amounted to 350 mg/kg.

Regarding `Cc1ccc(C(=O)/C=C/C(=O)O)o1` [Example 6, Trans 4-(5-methyl-2-furyl)-4-oxo-2-butenoic Acid], the “percentage” value in data set [1] is recorded as 75%. The molecule also yielded an LD50 in data set [2] of 350 mg/kg.

Regarding `Cc1cc(C(=O)/C=C/C(=O)O)c(C)o1` [Example 7, Trans 4-(2,5-dimethyl-3-furyl)-4-oxo-2-butenoic Acid], the “percentage” value in data set [1] stood at 45%. The LD50 in data set [2] was 350 mg/kg.
